# Data from US20260053932A1, “COMPOUNDS AND METHODS FOR THE TARGETED DEGRADATION OF ANDROGEN RECEPTOR AND ASSOCIATED METHODS OF USE” (Arvinas Operations, Inc., priority 2020, published 2026).
# Tested on: androgen receptor (AR) in LNCaP and/or VCaP cells
# Assay: Androgen Receptor ELISA assay (AR degradation)
# Format: cell-based
# Conditions: LNCaP and/or VCaP cells; 5 hours incubation; media with R1881; read-out: DC50 Code* (degradation of AR ELISA)
# Procedure, shortened: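 VCaP cells grown ≥3 days, then treated 5 h with compound in media containing 1 nM R1881 (10× stock). Cells lysed and AR quantified by sandwich ELISA (mouse AR detection Ab, HRP anti-mouse, TMB). DC50 and Dmax derived from AR degradation.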
row,Structure (SMILES),DC50 [nM]
1,"CC(C)N(CC1CCN(c2cnc(C(=O)N[C@H]3CC[C@H](Oc4ccc(C#N)c(Cl)c4)CC3)cn2)CC1)[C@H]1C[C@H](Oc2ccc3c(c2)C2(CC2)N(C2CCC(=O)NC2=O)C3=O)C1 (some centres unmarked) [Compound 65, N-((1r,4r)-4-(3-chloro-4-cyanophenoxy)cyclohexyl)-5-(4-((((1r,3r)-3-((2′-(2,6-dioxopiperidin-3-yl)-3′-oxospiro[cyclopropane-1,1′-isoindolin]-6′-yl)oxy)cyclobutyl) (isopropyl)amino)methyl)piperidin-1-yl)pyrazine-2-carboxamide]",< 1
2,"CC(C)Oc1cc(N2CCN(CC3CCN(c4ccc(C(=O)N[C@H]5CC[C@H](Oc6ccc(C#N)c(Cl)c6)CC5)nn4)CC3)CC2)cc2c1C(=O)N(C1CCC(=O)NC1=O)C2=O (some centres unmarked) [Compound 40, N-((1r,4r)-4-(3-chloro-4-cyanophenoxy)cyclohexyl)-6-(4-((4-(2-(2,6-dioxopiperidin-3-yl)-7-isopropoxy-1,3-dioxoisoindolin-5-yl)piperazin-1-yl)methyl)piperidin-1-yl)pyridazine-3-carboxamide]",< 1
3,"COc1cc(O[C@H]2CC[C@H](NC(=O)c3cnc(N4CC(CN(C(C)C)[C@H]5CC[C@H](Oc6ccc7c(c6)C(=O)N(C6CCC(=O)NC6=O)C7=O)CC5)C4)cn3)CC2)ccc1C#N (some centres unmarked) [Compound 22, N-((1r,4r)-4-(4-cyano-3-methoxyphenoxy)cyclohexyl)-5-(3-((((1r,4r)-4-((2-(2,6-dioxopiperidin-3-yl)-1,3-dioxoisoindolin-5-yl)oxy)cyclohexyl) (isopropyl)amino)methyl)azetidin-1-yl)pyrazine-2-carboxamide]",< 1
4,"N#Cc1ccc(O[C@H]2CC[C@H](NC(=O)c3cnc(N4CCC(CN(C5COC5)[C@H]5C[C@H](Oc6ccc7c(c6)C(=O)N(C6CCC(=O)NC6=O)C7=O)C5)CC4)cn3)CC2)cc1Cl (some centres unmarked) [Compound 61, N-((1r,4r)-4-(3-chloro-4-cyanophenoxy)cyclohexyl)-5-(4-((((1r,3r)-3-((2-(2,6-dioxopiperidin-3-yl)-1,3-dioxoisoindolin-5-yl)oxy)cyclobutyl) (oxetan-3-yl)amino)methyl)piperidin-1-yl)pyrazine-2-carboxamide]",< 1
5,"COc1cc(O[C@H]2CC[C@@H](NC(=O)c3cnc(N4CCC(CN(C(C)C)[C@H]5C[C@H](Oc6ccc7c(c6)C(=O)N(C6CCC(=O)NC6=O)C7=O)C5)CC4)cn3)C2)ccc1C#N (stereo partly drawn) [Compound 6, N-((1R,3S)-3-(4-cyano-3-methoxyphenoxy)cyclopentyl)-5-(4-((((1r,3R)-3-((2-(2,6-dioxopiperidin-3-yl)-1,3-dioxoisoindolin-5-yl)oxy)cyclobutyl) (isopropyl)amino)methyl)piperidin-1-yl)pyrazine-2-carboxamide]",> 100
6,"N#Cc1ccc(O[C@H]2CC[C@H](NC(=O)c3cnc(N4CCC(CN(C5COC5)[C@H]5C[C@H](Oc6ccc7c(c6)CN(C6CCC(=O)NC6=O)C7=O)C5)CC4)cn3)CC2)cc1Cl (some centres unmarked) [Compound 21, N-((1r,4r)-4-(3-chloro-4-cyanophenoxy)cyclohexyl)-5-(4-((((1r,3r)-3-((2-(2,6-dioxopiperidin-3-yl)-1-oxoisoindolin-5-yl)oxy)cyclobutyl) (oxetan-3-yl)amino)methyl)piperidin-1-yl)pyrazine-2-carboxamide]",< 1

# More lines, now with the values ahead:
row,DC50 [nM],Structure (SMILES)
1,1 to 10,"N#Cc1ccc(O[C@H]2CC[C@H](NC(=O)c3ccn(C4CCC(CN5CCN(c6ccc7c(c6)CN(C6CCC(=O)NC6=O)C7=O)CC5)CC4)n3)CC2)cc1Cl (some centres unmarked) [Compound 71, N-((1r,4r)-4-(3-chloro-4-cyanophenoxy)cyclohexyl)-1-(4-((4-(2-(2,6-dioxopiperidin-3-yl)-1-oxoisoindolin-5-yl)piperazin-1-yl)methyl)cyclohexyl)-1H-pyrazole-3-carboxamide]"
2,> 100,"CN1C(=O)CCC(N2C(=O)c3cc(F)c(N4CCN(CC5CCN(c6ccc(C(=O)N[C@H]7CC[C@H](Oc8ccc(C#N)c(Cl)c8)CC7)nn6)CC5)CC4)cc3C2=O)C1=O (some centres unmarked) [Compound 74, N-((1r,4r)-4-(3-chloro-4-cyanophenoxy)cyclohexyl)-6-(4-((4-(6-fluoro-2-(1-methyl-2,6-dioxopiperidin-3-yl)-1,3-dioxoisoindolin-5-yl)piperazin-1-yl)methyl)piperidin-1-yl)pyridazine-3-carboxamide]"

# Same assay, conditions: degradation of AR ELISA in LNCaP and/or VCaP cells; Table 2C; read-out: DC50 Code*
row,DC50 [nM],Structure (SMILES)
1,< 1,"COc1cc(O[C@H]2C[C@H](N(CCN3CCOCC3)CC3CCN(c4ccc(C(=O)N[C@H]5C(C)(C)[C@H](Oc6cc(C)c(C#N)c(C)c6)C5(C)C)cc4)CC3)C2)cc2c1C(=O)N(C1CCC(=O)NC1=O)C2=O (some centres unmarked) [compound 180, N-((1r,3r)-3-(4-cyano-3,5-dimethylphenoxy)-2,2,4,4-tetramethylcyclobutyl)-4-(4-((((1r,3r)-3-((2-(2,6-dioxopiperidin-3-yl)-7-methoxy-1,3-dioxoisoindolin-5-yl)oxy)cyclobutyl)(2-morpholinoethyl)amino)methyl)piperidin-1-yl)benzamide]"
2,< 1,"COc1cc(O[C@H]2C(C)(C)[C@H](NC(=O)c3c(C)nc(N4CCC(CN(C(C)C)[C@H]5C[C@H](Oc6ccc7c(c6)C(=O)N(C6CCC(=O)NC6=O)C7=O)C5)CC4)nc3C)C2(C)C)ccc1C#N (mixture of isomers) [compound 211, rac-N-((1r,3r)-3-(4-cyano-3-methoxyphenoxy)-2,2,4,4-tetramethylcyclobutyl)-2-(4-((((1r,3r)-3-((2-(2,6-dioxopiperidin-3-yl)-1,3-dioxoisoindolin-5-yl)oxy)cyclobutyl) (isopropyl)amino)methyl)piperidin-1-yl)-4,6-dimethylpyrimidine-5-carboxamide]"
3,< 1,"Cc1cc(O[C@H]2C(C)(C)[C@H](NC(=O)c3ccc(N4CCC(CN5CCOC[C@H]5CCOc5ccc6c(c5)C(=O)N(C5CCC(=O)NC5=O)C6=O)CC4)cc3)C2(C)C)cc(C)c1C#N (stereo partly drawn) [compound 201, N-((1r,3R)-3-(4-cyano-3,5-dimethylphenoxy)-2,2,4,4-tetramethylcyclobutyl)-4-(4-(((3R)-3-(2-((2-(2,6-dioxopiperidin-3-yl)-1,3-dioxoisoindolin-5-yl)oxy)ethyl)morpholino)methyl)piperidin-1-yl)benzamide]"
4,< 1,"CC(C)N(CC1CCN(c2cnc(C(=O)N[C@H]3C(C)(C)[C@H](Oc4ccc(C#N)c(Cl)c4)C3(C)C)cn2)CC1)[C@H]1C[C@H](Oc2ccc3c(c2)CN(C2CCC(=O)NC2=O)C3=O)C1 (some centres unmarked) [compound 113, N-((1r,3r)-3-(3-chloro-4-cyanophenoxy)-2,2,4,4-tetramethylcyclobutyl)-5-(4-((((1r,3r)-3-((2-(2,6-dioxopiperidin-3-yl)-1-oxoisoindolin-5-yl)oxy)cyclobutyl) (isopropyl)amino)methyl)piperidin-1-yl)pyrazine-2-carboxamide]"
5,< 1,"Cc1cc(O[C@H]2C(C)(C)[C@H](NC(=O)c3ccc(N4CCC5(CC4)CN(CCOc4ccc6c(c4)C(=O)N(C4CCC(=O)NC4=O)C6=O)CCO5)cc3)C2(C)C)cc(C)c1C#N (mixture of isomers) [compound 182, rac-N-((1r,3r)-3-(4-cyano-3,5-dimethylphenoxy)-2,2,4,4-tetramethylcyclobutyl)-4-(4-(2-((2-(2,6-dioxopiperidin-3-yl)-1,3-dioxoisoindolin-5-yl)oxy)ethyl)-1-oxa-4,9-diazaspiro[5.5]undecan-9-yl)benzamide]"

# Same assay, conditions: degradation of AR ELISA in LNCaP and/or VCaP cells; read-out: DC50 Code*
row,DC50 [nM],Structure (SMILES)
1,1 to 10,COc1cc(O[C@H]2C(C)(C)[C@H](NC(=O)c3ccc(N4CCC(CN5CCOCCCCOc6cc(cc7c6C(=O)N(C6CCC(=O)NC6=O)C7=O)O[C@H]6C[C@H]5C6)CC4)nn3)C2(C)C)ccc1C#N (some centres unmarked) [compound 244]
